Results: ChEMBL document CHEMBL4396913, “Synthesis and biological evaluation of hybrid quinolone-based quaternary ammonium antibacterial agents” (Eur J Med Chem, 2019)
Values after ≈ are worked out from the molar mass of the structure shown.

Columns and labels:
[1] = test system: Staphylococcus epidermidis; experiment: Antibacterial activity against Staphylococcus epidermidis ATCC 14990 cultured in MH medium assessed as reduction in bacterial growth incubated for 48 hrs by microbroth dilution method; assay type: functional; conditions: ATCC 14990, 48 h
[2] = test system: Proteus vulgaris; experiment: Antibacterial activity against Proteus vulgaris NCTC 4635 cultured in MH medium assessed as reduction in bacterial growth incubated for 48 hrs by microbroth dilution method; assay type: functional; conditions: NCTC 4635, 48 h
[3] = test system: Staphylococcus aureus; experiment: Bactericidal activity against Staphylococcus aureus ATCC 6538 cultured in MH medium assessed as reduction in bacterial survival incubated for 48 hrs by microbroth dilution method; assay type: functional; conditions: ATCC 6538, 48 h
[4] = test system: Proteus vulgaris; experiment: Bactericidal activity against Proteus vulgaris NCTC 4635 cultured in MH medium assessed as reduction in bacterial survival incubated for 48 hrs by microbroth dilution method; assay type: functional; conditions: NCTC 4635, 48 h
[5] = test system: Serratia marcescens; experiment: Antibacterial activity against Serratia marcescens ATCC 12795 cultured in MH medium assessed as reduction in bacterial growth incubated for 48 hrs by microbroth dilution method; assay type: functional; conditions: ATCC 12795, 48 h
[6] = test system: Escherichia coli; experiment: Bactericidal activity against Escherichia coli ATCC 8739 cultured in MH medium assessed as reduction in bacterial survival incubated for 48 hrs by microbroth dilution method; assay type: functional; conditions: ATCC 8739, 48 h
[7] = test system: Staphylococcus aureus; experiment: Bactericidal activity against methicillin resistant Staphylococcus aureus N315 cultured in MH medium assessed as reduction in bacterial survival incubated for 48 hrs by microbroth dilution method; assay type: functional; conditions: N315, 48 h
[8] = test system: Bacillus spizizenii; experiment: Bactericidal activity against Bacillus subtilis ATCC 6633 cultured in MH medium assessed as reduction in bacterial survival incubated for 48 hrs by microbroth dilution method; assay type: functional; conditions: ATCC 6633, 48 h
[9] = test system: Serratia marcescens; experiment: Bactericidal activity against Serratia marcescens ATCC 12795 cultured in MH medium assessed as reduction in bacterial survival incubated for 48 hrs by microbroth dilution method; assay type: functional; conditions: ATCC 12795, 48 h
[10] = test system: Escherichia coli; experiment: Antibacterial activity against […] Escherichia coli ATCC 8739 assessed as reduction in bacterial growth incubated for 48 hrs in presence of 50 ug/ml […], PAbetaN by microbroth dilution method; assay type: functional; conditions: ATCC 8739, 48 h
[11] = test system: Escherichia coli; experiment: Antibacterial activity against Escherichia coli ATCC 8739 cultured in MH medium assessed as reduction in bacterial growth incubated for 48 hrs by microbroth dilution method; assay type: functional; conditions: ATCC 8739, 48 h
[12] = test system: Streptococcus pneumoniae; experiment: Antibacterial activity against Streptococcus pneumoniae cultured in MH medium assessed as reduction in bacterial growth incubated for 48 hrs by microbroth dilution method; assay type: functional
[13] = test system: Bacillus spizizenii; experiment: Antibacterial activity against Bacillus subtilis ATCC 6633 cultured in MH medium assessed as reduction in bacterial growth incubated for 48 hrs by microbroth dilution method; assay type: functional; conditions: ATCC 6633, 48 h
[14] = test system: Escherichia coli; experiment: Bactericidal activity against […] Escherichia coli ATCC 8739 assessed as reduction in bacterial survival incubated for 48 hrs in presence of 50 ug/ml […], PAbetaN by microbroth dilution method; assay type: functional; conditions: ATCC 8739, 48 h
[15] = test system: HEK293; experiment: Cytotoxicity against human HEK293 cells assessed as cell viability upto 20 uM incubated for 72 hrs by MTT assay; assay type: cell-based; conditions: hek293, 72 h
[16] = test system: Pseudomonas aeruginosa; experiment: Antibacterial activity against Pseudomonas aeruginosa ATCC 9027 cultured in MH medium assessed as reduction in bacterial growth incubated for 48 hrs by microbroth dilution method; assay type: functional; conditions: ATCC 9027, 48 h
[17] = test system: Enterococcus hirae; experiment: Antibacterial activity against Enterococcus hirae ATCC 1052 cultured in BHI medium assessed as reduction in bacterial growth incubated for 48 hrs by microbroth dilution method; assay type: functional; conditions: ATCC 1052, 48 h
[18] = Lipophilicity, log k of the compound at 100 ug/ml by micellar electrokinetic chromatography; assay type: physicochemical
[19] = test system: HEK293; experiment: Cytotoxicity against human HEK293 cells assessed as changes in cell morphology upto 20 uM incubated for 72 hrs by MTT assay; assay type: cell-based; conditions: hek293, 72 h
[20] = test system: Staphylococcus epidermidis; experiment: Bactericidal activity against methicillin resistant Staphylococcus epidermidis ATCC 13199 cultured in MH medium assessed as reduction in bacterial survival incubated for 48 hrs by microbroth dilution method; assay type: functional; conditions: ATCC 13199, 48 h
[21] = test system: Staphylococcus epidermidis; experiment: Antibacterial activity against methicillin resistant Staphylococcus epidermidis ATCC 13199 cultured in MH medium assessed as reduction in bacterial growth incubated for 48 hrs by microbroth dilution method; assay type: functional; conditions: ATCC 13199, 48 h
[22] = test system: Staphylococcus aureus; experiment: Antibacterial activity against methicillin resistant Staphylococcus aureus N315 cultured in MH medium assessed as reduction in bacterial growth incubated for 48 hrs by microbroth dilution method; assay type: functional; conditions: N315, 48 h
[23] = test system: Staphylococcus aureus; experiment: Antibacterial activity against methicillin resistant Staphylococcus aureus 6347 cultured in MH medium assessed as reduction in bacterial growth incubated for 48 hrs by microbroth dilution method; assay type: functional; conditions: Staphylococcus aureus, 6347, 48 h
[24] = test system: Pseudomonas aeruginosa; experiment: Bactericidal activity against Pseudomonas aeruginosa ATCC 9027 cultured in MH medium assessed as reduction in bacterial survival incubated for 48 hrs by microbroth dilution method; assay type: functional; conditions: ATCC 9027, 48 h
[25] = test system: Staphylococcus aureus; experiment: Antibacterial activity against Staphylococcus aureus ATCC 6538 cultured in MH medium assessed as reduction in bacterial growth incubated for 48 hrs by microbroth dilution method; assay type: functional; conditions: ATCC 6538, 48 h
[26] = test system: Staphylococcus epidermidis; experiment: Bactericidal activity against Staphylococcus epidermidis ATCC 14990 cultured in MH medium assessed as reduction in bacterial survival incubated for 48 hrs by microbroth dilution method; assay type: functional; conditions: ATCC 14990, 48 h
[27] = test system: Staphylococcus aureus; experiment: Bactericidal activity against methicillin resistant Staphylococcus aureus 6347 cultured in MH medium assessed as reduction in bacterial survival incubated for 48 hrs by microbroth dilution method; assay type: functional; conditions: Staphylococcus aureus, 6347, 48 h
[28] = test system: Staphylococcus aureus; experiment: Biofilm degradation activity against Staphylococcus aureus ATCC 6538 assessed as biofilm formation at 4 times antibacterial MIC incubated for 24 hrs compound added post-biofilm formation by total biomass crystal violet staining-based method; assay type: functional
[29] = test system: Pseudomonas aeruginosa; experiment: Antibiofilm activity against Pseudomonas aeruginosa ATCC 9027 assessed as biofilm formation at 0.5 times antibacterial MIC incubated for 24 hrs compound added prior to bacterial biofilm formation by total biomass crystal violet staining-based method relative to control; assay type: functional
[30] = test system: Staphylococcus aureus; experiment: Antibiofilm activity against Staphylococcus aureus ATCC 6538 assessed as biofilm formation at antibacterial MIC incubated for 24 hrs compound added prior to bacterial biofilm formation by total biomass crystal violet staining-based method relative to control; assay type: functional
[31] = test system: Pseudomonas aeruginosa; experiment: Biofilm degradation activity against Pseudomonas aeruginosa ATCC 9027 assessed as biofilm formation at 4 times antibacterial MIC incubated for 24 hrs compound added post-biofilm formation by total biomass crystal violet staining-based method; assay type: functional
[32] = test system: Streptococcus pneumoniae; experiment: Bactericidal activity against Streptococcus pneumoniae cultured in MH medium assessed as reduction in bacterial survival incubated for 48 hrs by microbroth dilution method; assay type: functional
[33] = test system: Staphylococcus aureus; experiment: Biofilm degradation activity against Staphylococcus aureus ATCC 6538 assessed as biofilm formation at antibacterial MIC incubated for 24 hrs compound added post-biofilm formation by total biomass crystal violet staining-based method; assay type: functional
[34] = test system: Pseudomonas aeruginosa; experiment: Biofilm degradation activity against Pseudomonas aeruginosa ATCC 9027 assessed as biofilm formation at 2 times antibacterial MIC incubated for 24 hrs compound added post-biofilm formation by total biomass crystal violet staining-based method; assay type: functional
[35] = test system: Pseudomonas aeruginosa; experiment: Biofilm degradation activity against Pseudomonas aeruginosa ATCC 9027 assessed as biofilm formation at antibacterial MIC incubated for 24 hrs compound added post-biofilm formation by total biomass crystal violet staining-based method; assay type: functional
[36] = test system: Staphylococcus aureus; experiment: Biofilm degradation activity against Staphylococcus aureus ATCC 6538 assessed as biofilm formation at 2 times antibacterial MIC incubated for 24 hrs compound added post-biofilm formation by total biomass crystal violet staining-based method; assay type: functional
[37] = test system: Pseudomonas aeruginosa; experiment: Antibiofilm activity against Pseudomonas aeruginosa ATCC 9027 assessed as biofilm formation at antibacterial MIC incubated for 24 hrs compound added prior to bacterial biofilm formation by total biomass crystal violet staining-based method relative to control; assay type: functional
[38] = test system: Staphylococcus aureus; experiment: Antibiofilm activity against Staphylococcus aureus ATCC 6538 assessed as biofilm formation at 0.5 times antibacterial MIC incubated for 24 hrs compound added prior to bacterial biofilm formation by total biomass crystal violet staining-based method relative to control; assay type: functional
[39] = test system: Enterococcus hirae; experiment: Bactericidal activity against Enterococcus hirae ATCC 1052 cultured in BHI medium assessed as reduction in bacterial survival incubated for 48 hrs by microbroth dilution method; assay type: functional; conditions: ATCC 1052, 48 h

Row | SMILES | MIC [1] [µg/mL] | MIC [2] [µg/mL] | MBC [3] [µg/mL] | MBC [4] [µg/mL] | MIC [5] [µg/mL] | MBC [6] [µg/mL] | MBC [7] [µg/mL] | MBC [8] [µg/mL] | MBC [9] [µg/mL] | MIC [11] [µg/mL] | MIC [12] [µg/mL] | MIC [13] [µg/mL] | MIC [16] [µg/mL] | MIC [17] [µg/mL] | log K [18] | MBC [20] [µg/mL] | MIC [21] [µg/mL] | MIC [22] [µg/mL] | MIC [23] [µg/mL] | MBC [24] [µg/mL] | further results
1 | CCn1cc(C(=O)O)c(=O)c2cc(F)c(N3CC[N+]4(CN5C(C)=CC(C)=C(C(=O)O)C5=N4)C(C)C3)c(F)c21.[Cl-] (configuration not stated) | 32 | 1 | 64 | 1 | 64 | 8 | 128 | 8 | 64 | 4 | > 512 | 8 | 128 | > 512 | -0.4791 | 32 | 16 | 128 | 128 | > 512 | MIC [10]: 2 µg/mL; MBC [14]: 4 µg/mL; Activity [15]: Non-Toxic; Activity [19]: Non-Toxic; MIC [25]: 64 µg/mL; MBC [26]: 64 µg/mL; MBC [27]: 128 µg/mL
2 | CCn1cc(C(=O)O)c(=O)c2cc(F)c(N3CCNCC3)nc21 [ENOXACIN] | 0.5 (≈ 1.56 µM) | 0.032 (≈ 0.0999 µM) | 1 (≈ 3.12 µM) | 0.063 (≈ 0.197 µM) | 0.25 (≈ 0.78 µM) | 0.5 (≈ 1.56 µM) | 1 (≈ 3.12 µM) | 0.125 (≈ 0.39 µM) | 0.25 (≈ 0.78 µM) | 0.25 (≈ 0.78 µM) | 32 (≈ 99.9 µM) | 0.125 (≈ 0.39 µM) | 0.5 (≈ 1.56 µM) | 64 (≈ 200 µM) | 0.1564 | 0.25 (≈ 0.78 µM) | 0.25 (≈ 0.78 µM) | 1 (≈ 3.12 µM) | 0.5 (≈ 1.56 µM) | 0.5 (≈ 1.56 µM) | Activity [28]: 8%; Activity [29]: 27%; Activity [30]: 29%; Activity [31]: 49%; MBC [32]: > 512 µg/mL; Activity [33]: 45%; Activity [34]: 49%; Activity [35]: 46%; Activity [36]: 28%; Activity [37]: 7%; MIC [25]: 1 µg/mL (≈ 3.12 µM); Activity [38]: 27%; MBC [39]: 64 µg/mL (≈ 200 µM); MBC [26]: 2 µg/mL (≈ 6.24 µM); MBC [27]: 1 µg/mL (≈ 3.12 µM)
